According to ChEMBL document CHEMBL3046324, “Molecular recognition of long chain fatty acids by peroxisome proliferator-activated receptor” (Med Chem Res, 2009):

What was measured:
[1] = target: T1, Peroxisome proliferator-activated receptor alpha (Homo sapiens, UniProt Q07869); test: Inhibition of PPAR-alpha (unknown origin) by SPA assay
T1 sequence (Q07869 whole entry): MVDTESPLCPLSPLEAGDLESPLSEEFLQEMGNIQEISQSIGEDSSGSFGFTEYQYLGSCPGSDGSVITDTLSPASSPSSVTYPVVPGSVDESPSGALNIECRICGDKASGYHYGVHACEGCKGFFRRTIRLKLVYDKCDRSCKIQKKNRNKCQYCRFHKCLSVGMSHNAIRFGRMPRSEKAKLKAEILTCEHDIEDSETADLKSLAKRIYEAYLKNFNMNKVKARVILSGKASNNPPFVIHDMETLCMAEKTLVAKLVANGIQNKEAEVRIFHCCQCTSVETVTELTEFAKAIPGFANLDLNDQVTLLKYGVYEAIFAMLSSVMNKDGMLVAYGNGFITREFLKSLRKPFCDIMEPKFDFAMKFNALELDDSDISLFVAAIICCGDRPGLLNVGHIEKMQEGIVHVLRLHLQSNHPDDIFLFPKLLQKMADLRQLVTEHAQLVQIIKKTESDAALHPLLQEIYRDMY

[2] = target: T1, Peroxisome proliferator-activated receptor alpha; test: Binding affinity to PPAR-alpha (unknown origin) by fluorescence-based assay

IC50 [1] | Kd [2] | Structure (SMILES)
1400 nM |  | CCCCC/C=C\C/C=C\C/C=C\CCCCCCC(=O)O [DIHOMO-GAMMA-LINOLENIC ACID]
> 30000 nM |  | CCCCCCCC/C=C\CCCCCCCCCCCC(=O)O [ERUCIC ACID]
270 nM |  | CCCCC/C=C\C/C=C\C/C=C\CCCCC(=O)O [GAMOLENIC ACID]
1100 nM |  | CC/C=C\C/C=C\C/C=C\C/C=C\C/C=C\CCCC(=O)O [ICOSAPENT]
1100 nM | 4.8 nM | CCCCC/C=C\C/C=C\CCCCCCCC(=O)O [LINOLEIC ACID]
1200 nM | 7.9 nM | CC/C=C\C/C=C\C/C=C\CCCCCCCC(=O)O [LINOLENIC ACID]
600 nM |  | CCCCCCCC/C=C\CCCCCCCC(=O)O [OLEIC ACID]
1700 nM |  | CCCCCC/C=C\CCCCCCCC(=O)O [PALMITOLEIC ACID]

Structure (SMILES) | IC50 [1] | Kd [2]
CCCCC/C=C\C/C=C\C/C=C\C/C=C\CCCC(=O)O [ARACHIDONIC ACID] | 1200 nM | 
